Measured values taken from US11958812B2, “3, 5-disubstituted pyridine and 3, 5-disubstituted pyridazine derivatives and pharmaceutical use of same” (MITSUBISHI TANABE PHARMA CORPORATION, priority 2018, dated 2024).
pIC50: −log10 of the molar value.

Each compound was assayed against human recombinant ATX (Homo sapiens, UniProt Q13822) (assay: Enzyme inhibition test (choline release from LPC, Amplex UltraRed fluorescence)). Settings: 200 μM LPC substrate, 1 hr at room temperature, read-out: Experimental Example 1 human ATX IC50.
Type: biochemical
Experimental: [Enzyme Inhibition Test Method]
A mixture (10 μL) of substrate and a set of choline quantification reagents (200 μM LPC (1-Oleoyl-sn-glycero-3-phosphocholine Sigma #L1881), 25 μM Amplex UltraRed reagent (Invitrogen), 0.1 U/mL Peroxidase (TOYOBO), 1 U/mL Choline oxidase (TOYOBO)), prepared with assay buffer (50 mM Tris (pH 8.0), 140 mM NaCl, 5 mM KCl, 1 mM CaCl2, 1 mM MgCl2, 0.1% BSA (Albumin from bovine serum, SIGMA), 0.0025% Triton X-100), enzyme (0.4 ng/μL human recombinant ATX) (10 μL), compound-containing solution (100 nL) were dispensed to a 384-well plate, incubated at room temperature for 1 hr and the fluorescence (Ex. 525 nm/Em. 598 nm) was measured. As the standard, choline chloride was used. With a blank free of enzyme was taken as inhibitory rate 100%, and a control free of inhibitor as inhibitory rate 0%, the inhibitory rate was calculated, and IC50 value was calculated from the inhibitory activity percentage at each concentration.

Row | SMILES | pIC50
1 | COc1ccc(-c2cnnc(COc3ccc(C(F)(F)F)cc3)c2)cc1[C@@H]1C[C@H]1C(=O)O (relative stereo) [Example 3, trans-2-[2-methoxy-5-(6-{[4-(trifluoromethyl)phenoxy]methyl}pyridazin-4-yl)phenyl]cyclopropanecarboxylic Acid] | 7.46
2 | COc1ccc(-c2cnnc(CCc3ccc(OC(F)(F)F)cc3)c2)cc1[C@@H]1C[C@H]1C(=O)O (relative stereo) [Example 4, trans-2-[2-methoxy-5-(6-{2-[4-(trifluoromethoxy)phenyl]ethyl}pyridazin-4-yl)phenyl]cyclopropanecarboxylic Acid] | 7.77
3 | O=C(O)/C=C/CC1COCCN1c1cncc(OCc2ccc(OC(F)(F)F)cc2)c1 (single isomer, unassigned) [Example 22-2] | 7.13
4 | O=C(O)[C@H]1C[C@@H]1c1cc(-c2cncc(OCc3ccc(OC(F)(F)F)cc3)c2)ccn1 [Example 11-1, (1S,2S)-2-(5-{[4-(trifluoromethoxy)benzyl]oxy}-3,4′-bipyridin-2′-yl)cyclopropanecarboxylic Acid] | 8.00
5 | O=C(O)[C@@H]1C[C@H]1c1cc(-c2cncc(OCc3ccc(OC(F)(F)F)cc3)c2)ccn1 [Example 11-2, (1R,2R)-2-(5-{[4-(trifluoromethoxy)benzyl]oxy}-3,4′-bipyridin-2′-yl)cyclopropanecarboxylic Acid] | 7.60
6 | CC(C[C@H]1CN(c2cncc(OCc3ccc(OC(F)(F)F)cc3)c2)CCO1)C(=O)O (stereo partly drawn) [Example 17, 2-methyl-3-[(2S)-4-(5-{[4-(trifluoromethoxy)benzyl]oxy}pyridin-3-yl)morpholin-2-yl]propanoic Acid] | 7.25
7 | O=C(O)CC[C@H]1CN(c2cncc(CCc3ccc(OC(F)(F)F)cc3)c2)CCO1 [Example 18-1, 3-[(2S)-4-(5-{2-[4-(trifluoromethoxy)phenyl]ethyl}pyridin-3-yl)morpholin-2-yl]propanoic Acid] | 6.88
8 | O=C(O)COC[C@@H]1COCCN1c1cncc(OCc2ccc(OC(F)(F)F)cc2)c1 [Example 21, {[(3S)-4-(5-{[4-(trifluoromethoxy)benzyl]oxy}pyridin-3-yl)morpholin-3-yl]methoxy}acetic Acid] | 7.25
9 | O=C(O)COC[C@H]1CCCN1c1cncc(OCc2ccc(OC(F)(F)F)cc2)c1 [Example 24, {[(2R)-1-(5-{[4-(trifluoromethoxy)benzyl]oxy}pyridin-3-yl)pyrrolidin-2-yl]methoxy}acetic Acid] | 7.89
10 | COc1ccc(-c2cncc(/C=C\c3ccc(OC(F)(F)F)cc3)c2)nc1[C@H]1C[C@@H]1C(=O)O [Example 27] | 7.25
11 | COc1ccc(-c2cncc(OCc3cccc(Cl)c3)c2)cc1C1CC1C(=O)O (centres unmarked) [Example 32] | 7.59
12 | COc1ccc(-c2cncc(OCc3cccc(OC(F)(F)F)c3)c2)cc1C1CC1C(=O)O (centres unmarked) [Example 33] | 7.24
13 | COc1ccc(-c2cncc(OCc3ccccc3)c2)cc1C1CC1C(=O)O (centres unmarked) [Example 34] | 6.92
14 | O=C(O)c1ccc2c(c1)N(c1cncc(OCc3ccc(OC(F)(F)F)cc3)c1)CC2 [Example 37] | 8.10
15 | O=C(O)c1cccc2c1CCN2c1cncc(OCc2ccc(OC(F)(F)F)cc2)c1 [Example 38] | 6.42
16 | O=C(O)c1ccc2c(c1)OCCN2c1cncc(OCc2ccc(OC(F)(F)F)cc2)c1 [Example 40] | 7.92

Row | SMILES | pIC50
17 | O=C(O)c1ccc2c(c1)CCCN2c1cncc(OCc2ccc(OC(F)(F)F)cc2)c1 [Example 41] | 7.51
18 | O=C(O)c1ccc(C2CN(c3cncc(OCc4ccc(OC(F)(F)F)cc4)c3)CCO2)cc1 (centres unmarked) [Example 42] | 8.10
19 | O=C(O)c1cccc(C2CN(c3cncc(OCc4ccc(OC(F)(F)F)cc4)c3)CCO2)c1 (centres unmarked) [Example 43] | 7.89
20 | O=C(O)c1ccccc1C1CN(c2cncc(OCc3ccc(OC(F)(F)F)cc3)c2)CCO1 (centres unmarked) [Example 44] | 6.46
21 | COc1ccc(C2CN(c3cncc(OCC4CCN(CC(F)(F)F)CC4)c3)CCO2)cc1C(=O)O (centres unmarked) [Example 48] | 7.46
22 | O=C(O)c1ccc(C2CN(c3cncc(OC[C@H]4CC[C@H](C(F)(F)F)CC4)c3)CCO2)nc1 (some centres unmarked) [Example 50] | 8.00
23 | O=C(O)c1cncc(C2CN(c3cncc(OC[C@H]4CC[C@H](C(F)(F)F)CC4)c3)CCO2)c1 (some centres unmarked) [Example 52] | 8.15
24 | Cc1cc(C2CN(c3cncc(OC[C@H]4CC[C@H](C(F)(F)F)CC4)c3)CCO2)ncc1C(=O)O (some centres unmarked) [Example 56] | 8.15
25 | Cc1nc(C2CN(c3cncc(OC[C@H]4CC[C@H](C(F)(F)F)CC4)c3)CCO2)ccc1C(=O)O (some centres unmarked) [Example 57] | 8.15
26 | Cc1cnc(C2CN(c3cncc(OC[C@H]4CC[C@H](C(F)(F)F)CC4)c3)CCO2)cc1C(=O)O (some centres unmarked) [Example 61] | 7.82
27 | O=C(O)c1ccc(C2CN(c3cncc(OCc4ccc(OC(F)(F)F)cc4)c3)CCO2)nc1 (centres unmarked) [Example 63] | 8.15
28 | O=C(O)c1ccnc(C2CN(c3cncc(OCc4ccc(OC(F)(F)F)cc4)c3)CCO2)c1 (centres unmarked) [Example 65] | 7.80
29 | O=C(O)c1cccc(C2CCN(c3cncc(OCc4ccc(OC(F)(F)F)cc4)c3)C2)c1 (centres unmarked) [Example 67] | 7.89
30 | O=C(O)c1ccc(C2CCCN2c2cncc(OCc3ccc(OC(F)(F)F)cc3)c2)cc1 (centres unmarked) [Example 68] | 7.85
31 | O=C(O)CC[C@@H]1CN(c2cncc(OCc3ccc(OC(F)(F)F)cc3)c2)CCO1 [Example 69] | 6.82
32 | O=C(O)CC[C@H]1CN(c2cncc(OCC3CCN(CC(F)(F)F)CC3)c2)CCO1 [Example 70] | 6.87

Now those with a higher pIC50, led by results:

Row | pIC50 | SMILES
33 | 8.70 | C[C@@]1(C(=O)O)C[C@H]1[C@H]1CN(c2cncc(OC[C@H]3CC[C@H](C(F)(F)F)CC3)c2)CCO1 (relative stereo) [Example 20, trans-1-methyl-2-[(2S)-4-(5-{[trans-4-(trifluoromethyl)cyclohexyl]methoxy}pyridin-3-yl)morpholin-2-yl]cyclopropanecarboxylic Acid]
34 | 9.00 | COc1ccc(-c2cnnc(OC[C@H]3CC[C@H](C(F)(F)F)CC3)c2)nc1[C@H]1C[C@]1(C)C(=O)O [Example 7-1, (1S,2S)-2-[3-methoxy-6-(6-{[trans-4-(trifluoromethyl)cyclohexyl]methoxy}pyridazin-4-yl)pyridin-2-yl]-1-methylcyclopropanecarboxylic Acid]
35 | 8.70 | COc1ccc(-c2cnnc(OC[C@H]3CC[C@H](C(F)(F)F)CC3)c2)nc1[C@@H]1C[C@@]1(C)C(=O)O [Example 7-2, (1R,2R)-2-[3-methoxy-6-(6-{[trans-4-(trifluoromethyl)cyclohexyl]methoxy}pyridazin-4-yl)pyridin-2-yl]-1-methylcyclopropanecarboxylic Acid]
36 | 9.00 | O=C(O)[C@H]1C[C@@H]1c1cc(-c2cnnc(OC[C@H]3CC[C@H](C(F)(F)F)CC3)c2)ccn1 [Example 10-1, (1S,2S)-2-[4-(6-{[trans-4-(trifluoromethyl)cyclohexyl]methoxy}pyridazin-4-yl)pyridin-2-yl]cyclopropanecarboxylic Acid]
37 | 8.52 | O=C(O)[C@@H]1C[C@H]1c1cc(-c2cnnc(OC[C@H]3CC[C@H](C(F)(F)F)CC3)c2)ccn1 [Example 10-2, (1R,2R)-2-[4-(6-{[trans-4-(trifluoromethyl)cyclohexyl]methoxy}pyridazin-4-yl)pyridin-2-yl]cyclopropanecarboxylic Acid]
38 | 8.40 | COc1ccc(-c2cncc(/C=C/c3ccc(OC(F)(F)F)cc3)c2)nc1[C@H]1C[C@@H]1C(=O)O [Example 28]
39 | 8.70 | CCOc1ccc(-c2cnnc(OCC3CCN(CC(F)(F)F)CC3)c2)cc1[C@H]1C[C@@H]1C(=O)O [Example 30]
40 | 9.00 | O=C(O)c1ccc2c(c1)N(c1cncc(OC[C@H]3CC[C@H](C(F)(F)F)CC3)c1)CC2 [Example 35]
41 | 8.22 | O=C(O)c1ccc2c(c1)CCN2c1cncc(OCc2ccc(OC(F)(F)F)cc2)c1 [Example 36]
42 | 8.52 | COc1ccc(C2CN(c3cncc(OC[C@H]4CC[C@H](C(F)(F)F)CC4)c3)CCO2)cc1C(=O)O (some centres unmarked) [Example 47]
43 | 8.52 | O=C(O)c1ccc(C2CN(c3cncc(OC[C@H]4CC[C@H](C(F)(F)F)CC4)c3)CCO2)cn1 (some centres unmarked) [Example 49]
44 | 8.30 | O=C(O)c1ccnc(C2CN(c3cncc(OC[C@H]4CC[C@H](C(F)(F)F)CC4)c3)CCO2)c1 (some centres unmarked) [Example 51]
45 | 9.00 | COc1cc(C2CN(c3cncc(OC[C@H]4CC[C@H](C(F)(F)F)CC4)c3)CCO2)cnc1C(=O)O (some centres unmarked) [Example 53]
46 | 8.30 | COc1cc(C2CN(c3cncc(OC[C@H]4CC[C@H](C(F)(F)F)CC4)c3)CCO2)ncc1C(=O)O (some centres unmarked) [Example 54]
47 | 8.70 | Cc1cc(C2CN(c3cncc(OC[C@H]4CC[C@H](C(F)(F)F)CC4)c3)CCO2)cnc1C(=O)O (some centres unmarked) [Example 55]
48 | 8.40 | Cc1ccc(C2CN(c3cncc(OC[C@H]4CC[C@H](C(F)(F)F)CC4)c3)CCO2)nc1C(=O)O (some centres unmarked) [Example 58]
49 | 8.30 | Cc1ncc(C2CN(c3cncc(OC[C@H]4CC[C@H](C(F)(F)F)CC4)c3)CCO2)cc1C(=O)O (some centres unmarked) [Example 59]
50 | 8.30 | Cc1cnc(C2CN(c3cncc(OC[C@H]4CC[C@H](C(F)(F)F)CC4)c3)CCO2)cc1C(=O)O (some centres unmarked) [Example 60]
51 | 9.00 | O=C(O)c1cc(C2CN(c3cncc(OC[C@H]4CC[C@H](C(F)(F)F)CC4)c3)CCO2)ncc1C(F)(F)F (some centres unmarked) [Example 62]
52 | 9.00 | O=C(O)c1cncc(C2CN(c3cncc(OCc4ccc(OC(F)(F)F)cc4)c3)CCO2)c1 (centres unmarked) [Example 64]
53 | 8.30 | Cc1cc(C2CN(c3cncc(OCc4ccc(OC(F)(F)F)cc4)c3)CCO2)cnc1C(=O)O (centres unmarked) [Example 66]
